From patent US8354430B2, “Monohydrochloride salt of 1-[3-[3-(4-chlorophenyl) propoxy]propyl]-piperidine” (priority 2005, dated 2013)
Where “and” joins values, the source holds several entries; their conditions need not be identical. Equal values may be shown once. Entries after “also recorded” stand apart in the source; their conditions may differ.

Assays:
Mouse Brain native H3R = molecular target: T1, Mouse Brain native H3R (Mus musculus, UniProt P58406); assay: Histamine H3 receptor binding, mouse brain cortex membranes
T1 construct: was performed on mouse brain cortex membranes; from tissue; host or cells: mouse brain cortex membranes
T1 sequence (P58406 whole entry): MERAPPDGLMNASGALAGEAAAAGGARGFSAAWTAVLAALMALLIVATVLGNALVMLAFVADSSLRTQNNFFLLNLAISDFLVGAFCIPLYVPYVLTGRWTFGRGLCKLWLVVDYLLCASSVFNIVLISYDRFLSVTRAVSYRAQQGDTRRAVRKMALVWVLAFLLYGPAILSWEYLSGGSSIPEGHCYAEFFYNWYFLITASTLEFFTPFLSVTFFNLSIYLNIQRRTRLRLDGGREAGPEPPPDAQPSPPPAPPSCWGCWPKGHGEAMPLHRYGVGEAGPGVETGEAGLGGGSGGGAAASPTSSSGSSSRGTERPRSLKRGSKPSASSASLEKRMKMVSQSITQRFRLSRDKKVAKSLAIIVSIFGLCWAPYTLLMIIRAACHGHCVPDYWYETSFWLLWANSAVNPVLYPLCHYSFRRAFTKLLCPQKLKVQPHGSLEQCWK

Human H1R [1] = molecular target: T2, Human H1R (Homo sapiens, UniProt P35367); assay: Specific [3H]mepyramine binding at recombinant human H1 receptors expressed in HEK293 cells; conditions: read-out: Ki or IC50, Human H1R
T2 sequence (P35367 whole entry): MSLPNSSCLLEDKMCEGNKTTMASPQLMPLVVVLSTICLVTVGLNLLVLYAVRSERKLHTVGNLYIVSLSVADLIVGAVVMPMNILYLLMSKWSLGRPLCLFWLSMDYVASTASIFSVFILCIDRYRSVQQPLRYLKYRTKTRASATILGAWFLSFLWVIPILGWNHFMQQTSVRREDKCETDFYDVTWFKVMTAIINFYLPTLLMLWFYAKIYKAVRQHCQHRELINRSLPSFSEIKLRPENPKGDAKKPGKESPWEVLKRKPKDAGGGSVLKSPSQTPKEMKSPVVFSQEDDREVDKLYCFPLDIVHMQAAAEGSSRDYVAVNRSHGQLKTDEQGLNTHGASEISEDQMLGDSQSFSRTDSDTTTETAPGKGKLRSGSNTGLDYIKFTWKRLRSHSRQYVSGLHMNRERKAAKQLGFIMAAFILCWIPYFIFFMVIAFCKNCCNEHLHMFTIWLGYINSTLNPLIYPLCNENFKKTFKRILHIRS

Human H1R [2] = molecular target: T2, Human H1R; assay: Histamine-induced increase in [35S]GTPγS binding; assay type: biochemical; conditions: read-out: Ki or IC50, [35S]GTPγS
H2R = H2R (Cavia porcellus, UniProt P47747); assay: [125I]iodoaminopotentidine binding assay to the guinea pig H2 receptor; conditions: read-out: Ki or IC50, H2R
Chain of H2R (P47747 whole entry): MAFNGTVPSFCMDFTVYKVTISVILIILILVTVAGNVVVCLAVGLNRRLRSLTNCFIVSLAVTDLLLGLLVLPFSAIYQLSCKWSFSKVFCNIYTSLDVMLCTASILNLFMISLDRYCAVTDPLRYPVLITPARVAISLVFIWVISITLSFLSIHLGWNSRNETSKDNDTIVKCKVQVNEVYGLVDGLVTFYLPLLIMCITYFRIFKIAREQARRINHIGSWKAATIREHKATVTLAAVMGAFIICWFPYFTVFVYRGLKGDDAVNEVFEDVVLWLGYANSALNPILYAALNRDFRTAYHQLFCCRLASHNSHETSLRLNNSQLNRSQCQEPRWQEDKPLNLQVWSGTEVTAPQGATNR

Human H4R = Human H4R (Homo sapiens, UniProt Q9H3N8); assay: [3H]histamine binding assay; conditions: read-out: Ki or IC50, Human H4R
Chain of Human H4R (Q9H3N8 whole entry): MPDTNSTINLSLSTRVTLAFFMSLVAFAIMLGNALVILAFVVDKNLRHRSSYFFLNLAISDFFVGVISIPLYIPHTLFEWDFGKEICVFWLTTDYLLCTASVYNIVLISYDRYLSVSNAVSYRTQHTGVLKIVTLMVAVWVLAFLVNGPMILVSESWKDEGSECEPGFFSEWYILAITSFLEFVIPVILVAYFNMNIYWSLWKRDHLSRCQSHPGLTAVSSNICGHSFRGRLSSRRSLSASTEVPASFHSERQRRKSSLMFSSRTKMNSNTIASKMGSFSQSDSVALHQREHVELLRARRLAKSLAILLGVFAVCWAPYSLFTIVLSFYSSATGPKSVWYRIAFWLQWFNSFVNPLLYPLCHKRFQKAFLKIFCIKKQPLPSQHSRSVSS

rat H3R = molecular target: T3, rat H3R (Rattus norvegicus, UniProt Q9QYN8); assay: A23187-evoked [3H]arachidonic acid release from CHO cells expressing rat H3R; assay type: cell-based; conditions: 1 μM, rat H3R 300-400 fmol/mg protein
T3 construct: expressed in transfected cells; host or cells: CHO cells
T3 sequence (Q9QYN8 whole entry): as the sequence (P58406 whole entry) above, with A15T, T286A, G290A, H387R, V389I counted along it

mice [3] = assay: Kainate-induced temporal lobe seizures in mice; assay type: in vivo, mouse
Procedure: Unilateral injection of kainic acid (1 nmol in […]) into the dorsal hippocampus in mice induces a non-convulsive status that results in spontaneous recurrent focal seizures after 2-3 weeks. Seizures (5 to 20 times per hour in quiet mice) are characterized by a behavioral arrest and/or stereotypies, concomitant with spike and poly-spike discharges recorded in the injected hippocampus. All AEDs tested in this model (valproate, carbamazepine, phenytoin, levetiracetam) are without significant effects, except benzodiazepines which transiently suppress seizures. This model reproduces the behavioral, EEG, pharmacological and histological characteristics of mesial temporal lobe epilepsy, a form of epilepsy which is often drug-resistant in humans. After a recovery period, implanted mice (for EEG recording) were injected with kainic acid. They were EEG recorded at least 3 weeks after injection for selection of animals with consistent hippocampal seizure. Then, after a 20 min reference recording period, selected mice received either 1-[3-[3-(4-chlorophenyl)propoxy]propyl]piperidine monohydrochloride (10 or 20 mg/kg, i.p.) or saline and the recording was continued for 60 min. Treatments were given in a counter balanced order (after a one week washout period between two sessions).

cats = assay: Sleep-wake cycle study in cats (EEG/EMG); assay type: in vivo, cat
Procedure: Animals were chronically implanted with cortical and muscle electrodes to record EEG and EMG respectively, to allow monitoring their sleep-wake cycle. After recovery from surgery, animals were housed individually in a sound-proof recorded room maintaining at appropriate ambient temperature on a 12 h light/dark cycle. Polygraphic recordings were performed during 4 days to collect reference qualitative and quantitative data of sleep-wake control in each individual. Then, pharmacological evaluation was performed over 24 h sessions and analyzed by successive 30 sec epochs. Wakefulness and sleep states were identified as previously described for cats [Petitjean et al., Brain Res., 1975, 88: 439-53] and mice [[…] and Bugat, Brain Res., 1974, 69: 315-30]. Polygraphic recordings were started 7 days after surgery. Sleep-wake recording criteria included wakefulness (W), light slow wave sleep (SWS1), deep […]2) and paradoxical sleep (PS). Spectral analysis of EEG was performed by Fast-Fourier Transform in the frequency bands 0.8-2.5 Hz ([delta] slow waves), 8-15 Hz (spindles) and 20-45 Hz ([beta] and [gamma] rapid waves).

mice [4] = assay: Scopolamine-induced learning deficit, two-trial object recognition; assay type: in vivo, mouse; conditions: i.p., scopolamine 0.3 mg/kg i.p.
Procedure: Lett., 1994, 170, 117-120; Bartolini et al., Biochem. Nehav., 1996, 53, 277-283]. Methods: Mice were allowed to explore a box for 30 min in the presence of two objects. The day after, mice were submitted to two trials spaced by an interval of 60 min. During the first trial (T1), mice were placed in the box containing the two identical objects and the time required by each animal to complete 20 sec of object exploration was determined. Exploration was considered to be directing the nose at a distance closer than 2 cm to the object and/or touching the object. For the second trial (T2), one of the objects presented in the first trial was replaced by and unknown novel object. Mice were placed in the box for 5 min and exploration of each object together with motor activity was determined. The following parameters were measured.

mice [5] = assay: Acute toxicity in mouse; assay type: in vivo; conditions: for no-effect dose: mouse, in vivo
rats = assay: Acute toxicity in rat; assay type: in vivo; conditions: for no-effect dose: in vivo
[6] = 13-week repeat oral dose study in monkeys; conditions: monkey, in vivo
Source text: This dose was defined as the NOAEL in monkeys.

epileptic patients = assay: Photo paroxysmal response (PPR) to intermittent photic stimulation in photosensitive epileptic patients, single-blind single dose; assay type: in vivo, human; conditions: for Delay of apparition / Duration of effect / Suppression of PPR: individual patients
Source text: Acta Neurol. […] Unlike most other epilepsies, photosensitive epilepsy is a reflex epilepsy and epileptiform discharges can be evoked at any time by IPS in the laboratory. By determination of both upper and lower sensitivity limits (frequencies per flash) a so-called photosensitivity range can be determined. The range is related to liability of seizures in daily life of the patient. This photosensitivity range is relatively stable within a patient and can be diminished or abolished by antiepileptic medication. […] Twelve patients have been enrolled. Four patients received the dose of 20 mg. […] Four patients received the dose of 40 mg.

human H3R = human H3R (Homo sapiens, UniProt Q9Y5N1); assay: A23187-evoked [3H]arachidonic acid release from CHO cells expressing human H3R; assay type: cell-based; parameters: expressed in transfected cells; host or cells: CHO cells; conditions: 1 μM, human H3R 300-400 fmol/mg protein
Chain of human H3R (Q9Y5N1 whole entry): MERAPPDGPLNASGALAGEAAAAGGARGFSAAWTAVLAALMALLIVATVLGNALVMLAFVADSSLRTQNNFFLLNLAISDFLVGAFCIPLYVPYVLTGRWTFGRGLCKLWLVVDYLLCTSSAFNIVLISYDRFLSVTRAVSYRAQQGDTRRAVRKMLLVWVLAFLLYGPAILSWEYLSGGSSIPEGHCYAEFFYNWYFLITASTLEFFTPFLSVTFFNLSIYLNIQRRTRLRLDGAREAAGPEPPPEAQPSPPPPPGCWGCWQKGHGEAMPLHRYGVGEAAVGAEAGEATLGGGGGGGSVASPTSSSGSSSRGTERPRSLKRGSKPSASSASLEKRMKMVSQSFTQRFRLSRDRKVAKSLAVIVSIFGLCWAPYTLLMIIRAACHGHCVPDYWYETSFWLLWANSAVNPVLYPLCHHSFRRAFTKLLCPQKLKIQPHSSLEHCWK

[7] = 40 mg single dose, monohydrochloride
[8] = 60 mg single dose, monohydrochloride

Cl.Clc1ccc(CCCOCCCN2CCCCC2)cc1 [1-[3-[3-(4-chlorophenyl)propoxy]propyl]-piperidine monohydrochloride]
Ki (Mouse Brain native H3R; radioligand [3H](R)α-MeHA): 5.7 ± 0.2 nM | Ki (Mouse Brain native H3R; radioligand [125I]iodoproxyfan): 14 ± 0.1 nM | Ki (Human H1R [1]): 1.14 µM | IC50 (Human H1R [2]): > 10 µM | Ki (H2R): ~5 µM | Ki (Human H4R): > 100 µM | decrease of the A23187-evoked [3H]AA release (rat H3R): 40% | cumulated duration and number of hippocampal discharges (mice [3]; 10 mg/kg, i.p., first 40 min after administration): reduced | cumulated duration of hippocampal discharges (mice [3]; 20 mg/kg i.p., at 60 min): also reduced | time animals almost permanently wakeful (cats; 10 mg/kg oral): 6 to 12 h | increase in W duration (cats; 10 mg/kg oral, 6 h recording period): 79% | animal behavior after treatment (cats; oral): No major change in the animal behavior | awakening (W) at the expense of SWS and PS (cats; oral, 5 or 10 mg/kg): dose-dependent increase in awakening | reversal of scopolamine-induced amnesia (mice [4]; 5 mg/kg): a reversal trend appeared without being significant | reversal of scopolamine-induced amnesia (mice [4]; 15 mg/kg): significantly (p=0.0056) reversed | maximum non lethal dose (mice [5]; mice): 100 mg/kg | minimum lethal dose (mice [5]; mice, i.v.): 10 mg/kg | minimum lethal dose (mice [5]; mice, p.o.): 150 mg/kg | no-effect dose (mice [5]; iv): > 5 mg/kg | no-effect dose (mice [5]; po): > 30 mg/kg | no-effect dose (rats; iv): 12 mg/kg | no-effect dose (rats; po): > 50 mg/kg | maximum non lethal oral dose (rats; oral): 100 mg/kg | NOAEL at 13 weeks [6]: 5 mg/kg/day | Delay of apparition (epileptic patients; 20 mg single dose): 2 h | Duration of effect (epileptic patients; 20 mg single dose): 6 h | Suppression of PPR (epileptic patients; 20 mg single dose, monohydrochloride): No (3×) and Total | Delay of apparition (epileptic patients; [7]): <1 hour hours and 2 hours | Duration of effect (epileptic patients; [7]): >8 h and 26 h | Suppression of PPR (epileptic patients; [7]): No (2×) and Total and Partial | Delay of apparition (epileptic patients; [8]): 2 hours and <1 hour hours (3×) | Duration of effect (epileptic patients; [8]): >8 hours (2×) and >36 hours and 26 hours | Suppression of PPR (epileptic patients; [8]): Partial; also recorded: Total | clinical response (epileptic patients; 60 mg, four patients): clinical response in all four patients | appearance of effect post administration (epileptic patients; 20-60 mg, overall): 1 to 2 h | solubility (physchem; pH 4.5, aqueous buffer): > 1000 mg/mL | solubility (physchem; pH 7.4, aqueous buffer): > 1000 mg/mL | solubility (physchem; water): > 1000 mg/mL | reduction of the A23187-evoked [3H]AA release (human H3R): 20%
